Measured values: ChEMBL document CHEMBL1629567, “Pharmacodynamics of cidofovir for vaccinia virus infection in an in vitro hollow-fiber infection model system” (Antimicrob Agents Chemother, 2009)

Key:
[1] = AUC in cynomolgus monkey with probenecid at 5 mg/kg five dose regimen for 13 days; assay type: ADME, organism-based, Macaca fascicularis; set-up: dose 5 mg/kg; details: plasma
[2] = AUC in cynomolgus monkey with probenecid at 2.5 mg/kg; assay type: ADME, organism-based, Macaca fascicularis; set-up: dose 2.5 mg/kg; details: plasma
Variola major virus = assay: Antiviral activity against Variola major virus; assay type: functional
[3] = Antiviral activity against Vaccinia virus IHD-J ATCC VR-156 infected in HeLaS3 cells after 3 to 5 days by plaque assay; assay type: functional, cell-based; details: ATCC VR-156, HeLa S3
Vaccinia virus [4] = assay: Antiviral activity against Vaccinia virus WR infected in cynomolgus monkey with probenecid assessed as decrease in plasma viral titer at 5 dose regimen of 2.5 mg/kg for 13 days; assay type: functional; details: Orthopoxvirus vaccinia, in Macaca fascicularis, 312 h
[5] = AUC in cynomolgus monkey with probenecid at 5 mg/kg single dose regimen for 13 days; assay type: ADME, organism-based, Macaca fascicularis; set-up: dose 5 mg/kg; details: plasma
Vaccinia virus [6] = assay: Antiviral activity against Vaccinia virus IHD-W ATCC VR-1441 infected in HeLaS3 cells after 3 to 5 days by plaque assay; assay type: functional, organism-based; details: Orthopoxvirus vaccinia, IHD-W ATCC VR-1441, HeLa S3
[7] = AUC (0 to 24 hrs) in hollow-fiber infection model at 3 uM as continuous infusion; assay type: ADME; set-up: time < 24 hr, dose 3 uM
[8] = AUC in cynomolgus monkey with probenecid at 5 mg/kg six dose regimen for 13 days; assay type: ADME, organism-based, Macaca fascicularis; set-up: dose 5 mg/kg; details: plasma
Vaccinia virus [9] = assay: Antiviral activity against Vaccinia virus WR infected in cynomolgus monkey with probenecid assessed as decrease in plasma viral titer at 6 dose regimen of 2.5 mg/kg for 13 days; assay type: functional, Orthopoxvirus vaccinia; set-up: scale not given: the % may be the effect or the level left
[10] = AUC (0 to infinity) in human at 5 mg/kg administered as single dose; assay type: ADME, organism-based; set-up: time infinity, dose 5 mg/kg; details: plasma
[11] = AUC (0 to 24 hrs) in hollow-fiber infection model at >50 uM as continuous infusion; assay type: ADME; set-up: dose 50 uM, time < 24 hr

Molecule `Nc1ccn(C[C@@H](CO)OCP(=O)(O)O)c(=O)n1.O.O` [CIDOFOVIR] has an AUC at 312 h [1] of 514 µM·h, an AUC [2] of 14400 ng·h/mL and an Activity (Variola major virus) of 6 µM. For the same molecule, the EC50 [3] was 18.7 µM, the Emax at 2.5 mg/kg (Vaccinia virus [4]) was 30% and the AUC at 312 h [5] was 103 µM·h. The EC50 (Vaccinia virus [6]) was 20.6 µM, the AUC(0-t) at 24 h, 3 µM [7] was 72 µM·h and the AUC at 312 h [8] was 617 µM·h. For the same molecule, the Activity (Vaccinia virus [9]) was less than 10%, the AUC(0-inf) [10] was 75 µM·h and the AUC(0-t) at 24 h, 50 µM [11] was greater than 1200 µM·h.
